Experimental data from patent US12012394B2, “Alpha-synuclein ligands” (Washington University, priority 2018, dated 2024).
pKd: −log10 of the molar value. Several values for one entry are separate records, joined by “and”; a condition that tells them apart may be missing. Equal entries are not always repeated.

What was measured:
Banner seeded fibrils = Banner seeded fibrils (Homo sapiens (Human), UniProt P37840); experiment: Saturation binding of [125I]TZ61-84 to Banner seeded fibrils; conditions: 100 nM Banner seeded fibrils, saturation binding
Description: The binding efficacy (Kd) of TZ-61-84 was determined using a modified protocol. Specifically, saturation plots of radiolabeled [^125I]TZ61-84 were obtained measuring total and nonspecific binding of TZ61-84 to 100 nM Banner seeded fibrils. The results are depicted in FIG. 15B-15D and that TZ61-84 has a high binding affinity to α-synuclein (Kd<1 nM).

Aβ fibrils = Aβ fibrils (Homo sapiens (Human), UniProt P05067); experiment: Homologous competition radioligand binding assay, Aβ fibrils; conditions: 150 nM Aβ fibrils
Chain of Aβ fibrils (P05067 672-713): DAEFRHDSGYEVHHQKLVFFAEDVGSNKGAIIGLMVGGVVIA
Description: Synthetic Aβ1-42 peptide (1 mg) (Bachem, Torrance, CA) was first dissolved in 50 μl DMSO. An additional 925 μl of mQ-H2O was added. Finally, 25 μl 1M Tris-HCl pH 7.6 was added to bring the final peptide concentration to 222 μM (1 mg/ml). The dissolved peptide was incubated for 30 h at 37° C. with shaking at 1000 rpm in an Eppendorf Thermomixer. Fibril formation was confirmed by ThioT fluorescence. To determine the concentration of fibrils, the fibril reaction mix was centrifuged at 15,000×g for 15 min to separate fibrils from monomer. The concentration of Aβ monomer in the supernatant was determined in a BCA protein assay using a BSA standard curve that contained DMSO at a percentage equivalent to the samples. […]
These direct binding assays used a fixed concentration of either fibrils or PD/AD tissue and the radioligand (e.g., [^18F]28) and varying concentration ranges of corresponding homologous non-radiolabeled standard reference compound. […] Reactions were incubated at 37° C. for 1 h before quantifying bound radioligand. […] Filters containing the bound ligand were mixed with 150 μL of Optiphase Supermix scintillation cocktail (PerkinElmer) and counted immediately. […] The dissociation constant (Kd) and the maximal number of binding sites (Bmax) values were determined by fitting the data to the equation. […]

SMILES: COc1ccc2nc(-c3csc(C=O)c3)ccc2c1 [TZ55-81]
- pKd (Banner seeded fibrils): 9.47 and 9.30
- pKd (Aβ fibrils): 7.92
